Consider 1 molecule from US20250257064A1, “TRIFLUOROMETHYL-SUBSTITUTED SULFONAMIDE AS BCL-2-SELECTIVE INHIBITOR” (Chia Tai Tianqing Pharmaceutical Group Co., Ltd., priority 2018, published 2025).

The assay deals with RS4;11 cells. As to the kind of experiment: Inhibitory effect on proliferation of RS4;11 cells (CCK-8). It is filed as cell-based, human. As to conditions: Homo sapiens, RS4-11, 72 h. A digest of the protocol:
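RS4;11 cells were seeded at 1×10^5 cells/mL in RPMI with 5% FBS and incubated 24 h at 37° C, 5% CO2 before compound addition in duplicate. Inhibition was calculated against untreated and blank controls. IC50 came from a four-parameter fit of log concentration versus inhibition.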

Turning to `CC1(C)CCC(CN2CCN(c3ccc(C(=O)NS(=O)(=O)c4ccc(NCC5CCOCC5)c([N+](=O)[O-])c4)c(Oc4cnc5[nH]ccc5c4)c3)CC2)=C(c2ccc(C(F)(F)F)cc2Cl)C1` [Compound 1-1, 4-(4-{[2-(2-chloro-4-trifluoromethylphenyl)-4,4-dimethylcyclohex-1-enyl]methyl}-piperazin-1-yl)-N-({3-nitro-4-[(tetrahydro-2H-pyran-4-ylmethyl)amino]phenyl}sulfonyl)-2-(1H-pyrrolo[2,3-b]pyridin-5-yloxy)-benzamide], the midpoint of inhibition, the IC50, lay at 2.3 nM.
